Data on one molecule can be found in patent publication US10500178B2, “LTB4 inhibition to prevent and treat human lymphedema” (The Board of Trustees of the Leland Stanford Junior …, priority 2015, dated 2019).

For one assay, the system named is LTB4. Nature of the assay: serum LTB4 levels in lymphedema mice. The assay is classed as in vivo, mouse. To be noted: therapies initiated on d3, assessed on d24. As for the experimental part: All small molecule drugs were administered through daily intraperitoneal injection.
Quantification of LTB4, PGE2 and S1P with LC-MS/MS. Briefly, LTB4, PGE2 and S1P were separated from serum with an ACE reverse phase C18 HPLC column. Formic acid 0.5% in 5 mM NH4Ac (A) and formic acid 0.5% in acetonitrile/water (9/1) (B) were used as the mobile phase. […] The internal standard of this method was Carbutamide. The quantification limit was 1 ng/ml. The calibration range was 1-2000 ng/ml.

Another assay relates to LEC S1pr1−/− mice. As to the kind of experiment: lymphedema surgery in LEC S1pr1-/- mice. The format is in vivo, mouse. The source says: To generate lymphatic endothelial specific tdTomato reporter mice (Prox1-Cre-ER-tdTomato), Prox1-Cre-ER mice were crossed with tdTomato mice. To create lymphatic endothelial cell specific Notch1 or S1pr1 conditional knockouts, Prox1-Cre-ER mice were crossed with Notch1loxp/loxp or S1pr1loxp/loxp mice. Mice with Prox1-Cre-ER and both target alleles floxed by Prox1-Cre-ER/Notch1^loxp/loxp or Prox1-Cre-ER/S1pr1^loxp/loxp were considered to be either lymphatic endothelial cell-specific Notch1 knockout (LEC Notch1−/−) or S1pr1 knockout (LEC S1pr1^−/−), respectively. Mice expressing Prox1-Cre-ER were used as WT controls. […] Cre-mediated gene knockout efficiency was evaluated by enumerating Notch1- or S1PR1-expressing lymphatic endothelial cells or by qRT-PCR measurements of Notch1 or S1pr1 transcripts in the lymphatic endothelial cells, sorted by flow cytometry. […]
Tail volume quantitation. Tail-volume measurements at each designated time were quantified by observers blinded to the treatment status of the subjects. Tail volumes were calculated through a digital photographic technique pre-operatively, and post-operatively (d3, d9, d14, d20, and d24), using an Olympus D520 Zoom digital camera at SHQ resolution at a fixed distance from the subject (37 cm), as previously described. […]

The next assay relates to secondary leg lymphedema. Nature of the assay: study of ubenimex in patients with secondary leg lymphedema. The assay is classed as in vivo, human. To be noted: oral 150 mg three times daily, 6-month treatment period. How it is done: A study is conducted for treatment of patients with acquired lymphedema of the lower extremities with ubenimex. In this study, ubenimex is evaluated over a 6-month treatment period to determine the effect on dermal thickness and other efficacy measures in patients with secondary leg lymphedema. The efficacy, safety and tolerability of ubenimex in this patient population is characterized. Adult male and female subjects are enrolled with a confirmed diagnosis of Stage II or greater secondary leg lymphedema, based on a positive lymphoscintigraphy (LSG) study of the affected leg. At least 20 individuals are enrolled in each of the treatment and placebo arm of the trial. Individuals are given oral 150 mg ubenimex three times daily for a total daily dose of 450 mg. The drug and placebo are provided in a capsule form. Efficacy assessments include skin thickness (as measured by skinfold calipers), leg volume (as measured by standardized tape measure), bioimpedance (as measured by the […]) to measure 4-limb bioimpedance to determine extracellular fluid volume), and skin biopsy results (as measured by 6-mm skin punch biopsy samples to assess skin thickness and architecture (e.g., presence of hyperkeratosis, dermal collagen, and adipose deposition).

For `CC(C)C[C@H](NC(=O)[C@@H](O)[C@H](N)Cc1ccccc1)C(=O)O` [bestatin, (2S)-2-[[(2S,3R)-3-amino-2-hydroxy-4-phenylbutanoyl]amino]-4-methylpentanoic acid], in the assay on LTB4, the “serum LTB4 levels” value is recorded as “effectively reduced”. In the assay with LEC S1pr1−/− mice, the “lymphatic Sphk1 and eNOS expression after treatment” value is on record as “remaining low”; the “reversal of lymphedema (tail volume, dermal thickness, lymphatic dilation)” value is given as “failed to reverse lymphedema”. Besides, the “difference between ubenimex and placebo treatment arms by clinical indicia” value in the assay on secondary leg lymphedema is reported as “statistically significant difference”.
